Results taken from US10188634B2, “3-(3H-imidazo[4,5-C]pyridin-2-yl)-1 H-pyrazolo[4,3-B]pyridines and therapeutic uses thereof” (Samumed, LLC, priority 2015, dated 2019).
pEC50: −log10 of the molar value.

What was measured:
Format in all cases: cell-based
[1] = test system: IL-6 in THP-1 cells; assay: Inhibition of IL-6 in LPS-stimulated THP-1 human monocyte cells (HTRF); conditions: IL-6 HTRF; for pEC50: 500 ng/mL LPS, 22 hours; for inhibition at 10 µM: LPS, read-out: percent inhibition in brackets (given for EC50 >10 μM)
How it was run: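 IL-6 was quantified by HTRF ratio after LPS (500 ng/mL, 22 h) stimulation of THP-1 monocytes pretreated 2 h with compound, 10-point 1:3 dilutions from 10 μM, 0.1% DMSO. Cells were held in 1% FBS for 24 h beforehand. Values normalised to DMSO; four-parameter EC50, or % inhibition at 10 μM above that.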

[2] = test system: SW480 colon cancer cells; assay: Cell viability assay (CellTiter-Blue) in SW480 colon cancer cells; conditions: Homo sapiens, 96 h; for pEC50: four days incubation, CellTiter-Blue cell viability
How it was run: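 Four-day exposure of SW480 cells (~2×10^3/well) to compound from 10 μM down to 0.004 μM in 1:3 steps, in duplicate. Resorufin fluorescence from CellTiter-Blue after ~3 h served as the viability read-out. EC50 values came from nonlinear curve fits, with % inhibition at 10 μM given where EC50 >10 μM.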

[3] = test system: LL29 cells (primary human fibroblasts derived from IPF patients) treated with TGF-β1, α-smooth muscle actin; assay: Inhibition of the fibrotic process: αSMA staining in TGF-β1 treated primary human fibroblasts from IPF patients (LL29 cells); conditions: Fibroblast, 96 h; for pEC50: LL29 cells treated with TGF-β1 (20 ng/mL), 4 days; for inhibition at 10 µM: LL29 cells treated with TGF-β1, 4 days, read-out: percent inhibition in brackets (given for EC50 >10 μM)

Row | Structure (SMILES) | pEC50 [1] | pEC50 [2] | pEC50 [3] | inhibition at 10 µM [3] | inhibition at 10 µM [1] | inhibition at 10 µM ([2]; 10 μM, four days, CellTiter-Blue, read-out: percent inhibition at 10 μM (given for EC50 of >10 μM))
1 | CN(C)c1cncc(-c2ccc3[nH]nc(-c4nc5c(-c6cccc(F)c6)cncc5[nH]4)c3n2)c1 [Compound 7, 5-(3-(7-(3-Fluorophenyl)-3H-imidazo[4,5-c]pyridin-2-yl)-1H-pyrazolo[4,3-b]pyridin-5-yl)-N,N-dimethylpyridin-3-amine] | 6.47 | 6.07 | < 5.00 | 0% | – | –
2 | CN(C)Cc1cncc(-c2ccc3[nH]nc(-c4nc5c(-c6cccc(F)c6)cncc5[nH]4)c3n2)c1 [Compound 13, 1-(5-(3-(7-(3-Fluorophenyl)-3H-imidazo[4,5-c]pyridin-2-yl)-1H-pyrazolo[4,3-b]pyridin-5-yl)pyridin-3-yl)-N,N-dimethylmethanamine] | 5.81 | 6.11 | 6.32 | – | – | –
3 | O=C(Nc1cncc(-c2ccc3[nH]nc(-c4nc5c(-c6cccc(F)c6)cncc5[nH]4)c3n2)c1)C1CC1 [Compound 20, N-(5-(3-(7-(3-Fluorophenyl)-3H-imidazo[4,5-c]pyridin-2-yl)-1H-pyrazolo[4,3-b]pyridin-5-yl)pyridin-3-yl)cyclopropanecarboxamide] | < 5.00 | < 5.00 | < 5.00 | 0% | 19.6% | 5.1%
4 | Fc1cccc(-c2cncc3[nH]c(-c4n[nH]c5ccc(-c6cncc(CN7CCC(F)(F)C7)c6)nc45)nc23)c1 [Compound 26, 5-(5-((3,3-Difluoropyrrolidin-1-yl)methyl)pyridin-3-yl)-3-(7-(3-fluorophenyl)-3H-imidazo[4,5-c]pyridin-2-yl)-1H-pyrazolo[4,3-b]pyridine] | < 5.00 | 6.01 | 5.21 | – | 21% | –
5 | CC(C)(C)C(=O)Nc1cncc(-c2ccc3[nH]nc(-c4nc5c(-c6ccc(F)cc6)cncc5[nH]4)c3n2)c1 [Compound 36, N-(5-(3-(7-(4-Fluorophenyl)-3H-imidazo[4,5-c]pyridin-2-yl)-1H-pyrazolo[4,3-b]pyridin-5-yl)pyridin-3-yl)pivalamide] | < 5.00 | 5.21 | 5.91 | – | 35.9% | –
6 | Fc1ccc(-c2cncc3[nH]c(-c4n[nH]c5ccc(-c6cncc(CN7CCCC7)c6)nc45)nc23)cc1 [Compound 42, 3-(7-(4-Fluorophenyl)-3H-imidazo[4,5-c]pyrid-2-yl)-5-(5-(pyrrolidin-1-ylmethyl)pyridin-3-yl)-1H-pyrazolo[4,3-b]pyridine] | < 5.00 | 5.98 | 5.61 | – | 42% | –
7 | Fc1ccccc1-c1cncc2[nH]c(-c3n[nH]c4ccc(-c5ccccn5)nc34)nc12 [Compound 84, 3-(7-(2-Fluorophenyl)-3H-imidazo[4,5-c]pyridin-2-yl)-5-(pyridin-2-yl)-1H-pyrazolo[4,3-b]pyridine] | < 5.00 | 6.44 | < 5.00 | 29.7% | 46.8% | –
8 | CC(C)Nc1cncc(-c2ccc3[nH]nc(-c4nc5c(-c6cccnc6)cncc5[nH]4)c3n2)c1 [Compound 96, N-Isopropyl-5-(3-(7-(pyridin-3-yl)-3H-imidazo[4,5-c]pyridin-2-yl)-1H-pyrazolo[4,3-b]pyridin-5-yl)pyridin-3-amine] | 5.76 | 5.21 | 5.51 | – | – | –
9 | CN(C)c1cncc(-c2ccc3[nH]nc(-c4nc5c(N6CCCCC6)cncc5[nH]4)c3n2)c1 [Compound 175, N,N-dimethyl-5-(3-(7-(piperidin-1-yl)-3H-imidazo[4,5-c]pyridin-2-yl)-1H-pyrazolo[4,3-b]pyridin-5-yl)pyridin-3-amine] | 6.91 | 5.42 | 5.88 | – | – | –
10 | Cc1ccncc1-c1ccc2[nH]nc(-c3nc4c(-c5ccsc5)cncc4[nH]3)c2n1 [Compound 257, 5-(4-Methylpyridin-3-yl)-3-(7-(thiophen-3-yl)-3H-imidazo[4,5-c]pyridin-2-yl)-1H-pyrazolo[4,3-b]pyridine] | < 5.00 | 6.07 | 5.07 | – | 11.5% | –
